From US5686448A (priority 1995, dated 1997)
Like-named read-outs stand apart in the source and are kept apart here.

Key:
[1] = test system: HSV types 1 and 2 (herpes simplex)
HSV-1 (F strain) = test system: HSV-1 (F strain)
Method: In Series No. 1 of Example No. 1, monolayer cultures of Vero, RK-13 (rabbit kidney), and WISH (human amnion, Hayflick) cells were used in the experiments of Example No. 1. The cells were grown in Basal Minimal Eagle's Media supplemented with 5% fetal calf serum, 1% glutamine, sodium bicarbonate and antibiotics. Cultures were maintained in a maintenance media that was the same media, except that the maintenance media contained 2% fetal calf serum. An F Strain of HSV-1 was chosen because it is a well-known prototype of HSV-1. This F Strain can be obtained from the American Type Culture Collection (ATCC), 12301 Parklawn Drive, Rockville, Md. 20852, at which it is identified as ATC-VR 733. For studies with HSV-2, a G strain of HSV-2 (ATCC-VR 734) and a 333 strain of HSV-2 were selected. These strains also can be obtained from the ATCC.
Two methods were used to test the drug's effectiveness in the suppression of viral growth. In the pre-inoculation experiments, the drug was added after adsorption of the virus. In the pre-incubation experiments, the drug was added prior to infection of the cell cultures.
Accordingly, the pre-inoculation experiments measured the effect of the drug on a cell that was already infected with the virus. The pre-incubation experiments measured the cell cultures that were treated with the drug prior to the inoculation to determine if these cells then would be permissive or non-permissive to the tested virus. In these experiments, plaque reduction assays provided a quantitative measure of antiviral activity and was deemed to be reliable and objective.
In the pre-incubation experiments, the media was either decanted or gently aspirated from the cultures. After decanting or aspirating, 1 ml of the drug dilution plus maintenance media was added to the cultures. The cultures that served as virus controls or cell controls received 2 ml of maintenance media. After the pre-treatment period, the media was again aspirated and the cell cultures were infected with the virus.
When this occurred, the cultures were fixed and stained with crystal violet. The plaque were then carefully counted under the microscope. By such a counting and careful comparison, percentages of plaque inhibition in the treated cultures were then calculated.
These duplicate wells were incubated for 3 hours. After this time, the maintenance media was aspirated and the cultures were infected. Fresh maintenance media was then added.

[2] = Patient B, fourth treatment 4.8 cc
[3] = Patient B, third treatment 4.5 cc
[4] = Patient I, three months after second infusion
[5] = Exp. 1E, 4 hours pre-incubation, 100 mg/culture
[6] = Exp. 1E, 7 hours pre-incubation, 100 mg/culture

For `CC[N+](CC)(CC)CC.[Cl-]` [TEAC, tetraethylammonium chloride], the oral lesion resolution ([1]; Patient B, 3 days after first infusion) was “resolution occurring in a shorter than usual time”, the severity of attack ([1]; Patient B, about a month after second treatment) was “the attack was never serious and that no lesion appeared” and the attacks ([1]; Patient B, about a month later) was “no more attacks”. For the same molecule, the aura and lesion ([1]; Patient B, day after second 3.7 cc) was “absence of an aura and no occurrence of the expected lesion except for a very small lesion”, the “duration of penile lesions” value [1, 2] was 8 days and the value of treatment [1, 2] was “the last treatment appeared of no value”. The recurrences [1, 3] was “recurrences were not eliminated”, the “time to disappearance of penile lesion” value [1, 3] was 2 to 3 days and the fever blisters ([1]; Patient C) was “cleared right away”. The labial lesions ([1]; Patient C) was “two attacks of labial lesions cleared rapidly”, the forehead lesion ([1]; Patient C, about a month later) was “crusted relatively quickly” and the further problems ([1]; Patient C, five and ten months after initial treatment) was “no further problems”. The lesions ([1]; Patient C, next day, 3.85 cc (5 mg/kg)) was “markedly improved”, the infection ([1]; Patient I, first infusion 4.7 cc) was “all clear” and the further lesions [1, 4] was “no further lesions until one developed in the preceding week”. For the same molecule, the nocturnal headaches [1, 4] was “no further nocturnal headaches”, the “% plaque inhibition” value (HSV-1 (F strain); Exp. 1D, 3 hours before infection, 12.5 mg/culture) was 80% and the “% plaque inhibition” value (HSV-1 (F strain); Exp. 1D, 3 hours before infection, 25.0 mg/culture) was 79%. For the same molecule, the “% plaque inhibition” value (HSV-1 (F strain); Exp. 1D, 3 hours before infection, 50.0 mg/culture) was 82%, the “% plaque inhibition” value (HSV-1 (F strain); Exp. 1D, 3 hours before infection, 100.0 mg/culture) was 79% and the “% plaque inhibition” value (HSV-1 (F strain); Exp. 1E, 2 hours pre-incubation, 12.5 mg/culture) was 18%. The “% plaque inhibition” value (HSV-1 (F strain); Exp. 1E, 2 hours pre-incubation, 25 mg/culture) was 17%, the “% plaque inhibition” value (HSV-1 (F strain); Exp. 1E, 2 hours pre-incubation, 50 mg/culture) was 24% and the “% plaque inhibition” value (HSV-1 (F strain); Exp. 1E, 2 hours pre-incubation, 100 mg/culture) was 68%. The “% plaque inhibition” value (HSV-1 (F strain); Exp. 1E, 4 hours pre-incubation, 12.5 mg/culture) was “less than 20%”, the “% plaque inhibition” value (HSV-1 (F strain); Exp. 1E, 4 hours pre-incubation, 50 mg/culture) was 63% and the “% plaque inhibition” value (HSV-1 (F strain); [5]) was 100%. The “cell layer appearance (thin)” value (HSV-1 (F strain); [5]) was “thin”, the “% plaque inhibition” value (HSV-1 (F strain); Exp. 1E, 7 hours pre-incubation, 12.5 mg/culture) was 76% and the “% plaque inhibition” value (HSV-1 (F strain); [6]) was 100%. The “cell layer appearance (thin)” value (HSV-1 (F strain); [6]) was “thin” and the “permissiveness of cells to virus” value (HSV-1 (F strain); added before viral inoculation, summary) was “rendered the cells non-permissive to the virus and no plaque formed”.
